# US8940765B2, “N-linked quinolineamide M1 receptor positive allosteric modulators” (Merck Sharp & Dohme Corp., priority 2011, dated 2015)
# Target: T1, acetylcholine muscarinic M1 receptor (Homo sapiens, UniProt P11229)
# T1 construct: expressed in transfected cells; host or cells: CHOnfat cells (CHO with NFAT reporter background) stably expressing hM1, Geneticin selection
# T1 sequence (P11229 1-460): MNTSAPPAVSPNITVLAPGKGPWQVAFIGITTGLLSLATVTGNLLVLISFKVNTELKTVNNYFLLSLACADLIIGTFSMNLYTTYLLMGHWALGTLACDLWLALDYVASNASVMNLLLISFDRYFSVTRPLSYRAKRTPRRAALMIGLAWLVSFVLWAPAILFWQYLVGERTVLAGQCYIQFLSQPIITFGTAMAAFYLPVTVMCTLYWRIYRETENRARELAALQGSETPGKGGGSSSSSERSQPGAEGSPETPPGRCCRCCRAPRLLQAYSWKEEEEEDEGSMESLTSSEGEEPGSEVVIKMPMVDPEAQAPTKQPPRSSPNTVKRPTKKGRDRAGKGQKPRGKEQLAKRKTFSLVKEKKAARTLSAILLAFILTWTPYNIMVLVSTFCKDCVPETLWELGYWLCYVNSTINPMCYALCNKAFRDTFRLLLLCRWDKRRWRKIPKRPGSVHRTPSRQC
# Experiment: muscarinic FLIPR assay: intracellular calcium in CHOnfat/hM1 cells, potentiation of EC20 acetylcholine
# Format: cell-based
# Conditions: FLIPR Ca2+, 4 min preincubation, then EC20 acetylcholine (3 nM final), read-out: IP Value (inflection point)
# Experimental: The assay studies the effect of one or several concentrations of test compounds on basal or acetylcholine-stimulated Ca^2+ levels using FLIPR.
# Compounds are prepared and subjected to a preincubation period of 4 min. Thereafter, a single EC20 concentration of acetylcholine is added to each well (3 nM final). The intracellular Ca^2+ level of each sample is measured and compared to an acetylcholine control to determine any modulatory activity.
# Cells: CHOnfat/hM1, hM2, hM3 or hM4 cells are plated 24 hr before the assay at a density of 18,000 cells/well (100 μL) in a 384 well plate. CHOnfat/hM1 and CHOnfat/hM3 Growth Medium: 90% DMEM (Hi Glucose); 10% HI FBS; 2 mM L-glutamine; 0.1 mM NEAA; Pen-Strep; and 1 mg/ml Geneticin, are added. For M2Gqi5CHOnfat and M4Gqi5CHOnfat cells, an additional 600 ug/ml hygromycin is added.
# Equipment: 384 well plate, 120 μL addition plate; 96-well Whatman 2 ml Uniplate Incubator, 37° C., 5% CO2; Skatron EMBLA-384 Plate Washer; Multimek Pipetting System; Genesis Freedom 200 System; Mosquito System; Temo Nanoliter Pipetting System; and FLIPR384 Fluorometric Imaging Plate Reader System are used.
# Buffers. Assay Buffer: Hanks Balanced Salt Solution, with 20 mM Hepes, 2.5 mM Probenecid (Sigma P-8761) first dissolved in 1 N NaOH, 1% Bovine Serum Albumin (Sigma A-9647). Dye Loading Buffer: Assay Buffer plus 1% Fetal Bovine Serum and Fluo-4AM/Pluronic Acid Mixture. 2 mM Fluo-4AM ester stock in DMSO (Molecular Probes F-14202) Concentration of 2 μM in buffer for a final concentration of 1 μM in Assay. 20% Pluronic Acid Solution stock, with concentration of 0.04% in Buffer, 0.02% in Assay.
# 65 μl, of 2 mM Fluo-4AM are mixed with 130 μL of 20% Pluronic Acid. The resulting solution and 650 μL FBS is added to the assay buffer for a total volume of 65 mL. Positive Controls: 4-Br-A23187: 10 mM in DMSO; final concentration 10 μM. Acetylcholine: 10 mM in water, working stock at both 20 μM and 30 μM in assay buffer, final concentration of 10 μM. This is used to check the maximum stimulation of the CHOK1/hM1 cells. 20 μM (2×) acetylcholine is added in the preincubation part of the assay, and the 30 μM (3×) stock is added in the second part. (EC20)Acetylcholine: 10 mM in water, working stock of 9 nM (3×), and final concentration in assay is 3 nM. This is used after the preincubation with test compounds. Addition of the EC20 Acetylcholine to each well with a test compound will ascertain any modulator activity. 24 wells contain 3 nM Acetylcholine alone as a control.
# Determining Activity of Putative Compounds:
# Screening Plate: Compounds are titrated in 96-well plates (columns 2-11), 100% DMSO, started at a concentration of 15 mM (150× stock concentration), and 3-fold serial dilutions using Genesis Freedom200 System. Four 96-well plates are combined into a 384-well plate using Mosquito Nanoliter Pipetting System by transferring 1 μl of serial diluted compounds to each well, and 1 mM acetylcholine (100× stock concentration) were added as a control. Using Temo, 49 μl assay buffer is added to each well of the 384-well plate right before assay.
# In a 96-well Whatman 2 ml Uniplate, 9 nM Acetylcholine (3×) is pipetted into wells corresponding to the screening compounds, and into control wells. The 30 μM acetylcholine control (3×) is added into control wells, and the 3× agonist plate is transferred into a 384 well plate.
# Cells are washed three times with 100 μL of buffer, leaving 30 μL of buffer in each well. Using Multimek, 30 μl, of Dye Loading Buffer is added into each well and incubated at 37° C., 5% CO2 for up to one hr.
# After […], the cells are washed three times with 100 μL of buffer, leaving 30 μL of buffer in each well. The cell plate, screening plate, and agonist addition plates are placed on the platform in the FLIPR and the door closed. A signal test to check background fluorescence and basal fluorescence signal is performed. Laser intensity is adjusted if necessary. […]
row,Compound,EC50 [nM]
1,"Cc1ccnc(C2(C#N)CCN(Cc3cc(C(=O)N[C@H]4CCCC[C@@H]4O)nc4ccccc34)CC2)c1 [Example 3, 4-{[4-cyano-4-(4-methylpyridin-2-yl)piperidin-1-yl]methyl}-N-[(1S,2S)-2-hydroxycyclohexyl]quinoline-2-carboxamide]",20
2,"N#CC1(c2ccccc2)CCN(Cc2cc(C(=O)N[C@H]3CCCC[C@@H]3O)nc3ccccc23)CC1 [Example 4, 4-[(4-cyano-4-phenylpiperidin-1-yl)methyl]-N-[(1S,2S)-2-hydroxycyclohexyl]quinoline-2-carboxamide]",325
3,"N#CC1(c2ccccc2F)CCN(Cc2cc(C(=O)N[C@H]3CCCC[C@@H]3O)nc3ccccc23)CC1 [Example 5, 4-{[4-cyano-4-(2-fluorophenyl)piperidin-1-yl]methyl}-N-[(1S,2S)-2-hydroxycyclohexyl]quinoline-2-carboxamide]",81
4,"Cc1ccnc(C2(C#N)CCN(Cc3cc(C(=O)N[C@H]4CCOC[C@@H]4O)nc4ccccc34)CC2)c1 [Example 8, 1,5-anhydro-3-{[(4-{[4-cyano-4-(4-methylpyridin-2-yl)piperidin-1-yl]methyl}quinolin-2-yl)carbonyl]amino}-2,3-dideoxy-L-threo-pentitol]",27
5,"Cc1ccccc1C1(C#N)CCN(Cc2cc(C(=O)N[C@H]3CCCC[C@@H]3O)nc3ccccc23)CC1 [Example 7, 4-{[4-cyano-4-(2-methylphenyl)piperidin-1-yl]methyl}-N-[(1S,2S)-2-hydroxycyclohexyl]quinoline-2-carboxamide]",136
6,"N#CC1(c2ccccn2)CCN(Cc2cc(C(=O)N[C@H]3CCCC[C@@H]3O)nc3ccccc23)CC1 [Example 1, 4-[(4-cyano-4-pyridin-2-ylpiperidin-1-yl)methyl]-N-[(1S,2S)-2-hydroxycyclohexyl]quinoline-2-carboxamide]",54
7,"Cn1cc(N2CCN(Cc3cc(C(=O)N[C@H]4CCCC[C@@H]4O)nc4ccccc34)CC2)cn1 [Example 2, N-[(1S,2S)-2-hydroxycyclohexyl]-4-{[4-(1-methyl-1H-pyrazol-4-yl)piperazin-1-yl]methyl}quinoline-2-carboxamide]",369
8,"N#CC1(c2cccnc2)CCN(Cc2cc(C(=O)N[C@H]3CCCC[C@@H]3O)nc3ccccc23)CC1 [Example 9, 4-[(4-cyano-4-pyridin-3-ylpiperidin-1-yl)methyl]-N-[(1S,2S)-2-hydroxycyclohexyl]quinoline-2-carboxamide]",54
9,"N#CC1(c2ccccc2Cl)CCN(Cc2cc(C(=O)N[C@H]3CCCC[C@@H]3O)nc3ccccc23)CC1 [Example 6, 4-{[4-(2-chlorophenyl)-4-cyanopiperidin-1-yl]methyl}-N-[(1S,2S)-2-hydroxycyclohexyl]quinoline-2-carboxamide]",117
